According to patent US20250276116A1, “METHODS OF […] DUE TO EXTR[…] OXYGENATION” (Tufts Medical Center, Inc., priority 2021, published 2025):
Entries after “also recorded” stand apart in the source; their conditions may differ.

Tests used:
cardiolipin = assay: Mitochondrial cardiolipin in the infarct zone, swine IRI with ECMO / EC-Pella (FIGS. 9C-9D); assay type: in vivo; settings: to a similar degree as pre-emptive ECPella
Description: Ischemia-reperfusion injury (IRI) was induced in adult swine via percutaneous occlusion of the left anterior descending artery (LAD) for 90 minutes, followed by activation of either ECMO alone for 30 minutes or EC-Pella for 45 minutes with persistent LAD occlusion. All groups underwent 180 minutes of reperfusion (n=4-6/group). To study whether the sequence of device activation impacts infarct size, we compared activation of ECMO alone for 30 minutes followed by simultaneous Impella CP for 15 minutes (Bailout EC-Pella) versus Impella CP activation for 30 minutes followed by simultaneous ECMO for 15 minutes (Pre-emptive EC-Pella) before reperfusion. LV hemodynamics and ventriculo-arterial (VA) coupling were assessed.
Compared to IRI and ECMO alone, EC-Pella decreased PVA when applied as pre-emptive ECPella but not Bailout ECPella (FIG. 7). Both EC-Pella configurations decreased infarct size (FIG. 8A), increased cardioprotective signaling via the reperfusion injury salvage kinase pathway (FIG. 8B), and reduced apoptosis and pro-apoptotic signaling (FIG. 8C). Pre-emptive, but not bailout, ECPella preserved mitochondrial […] tafazzin levels (FIGS. 9A-B), increased mitochondrial cardiolipin levels (FIG. 9C), and reduced the ratio of immature: mature cardiolipin (MLCL: CL ratio; FIG. 9D) within the infarct zone compared to ECMO alone.

[1] = system: LV infarct scar after AMI; assay: Late-term outcomes in swine 28 days after AMI with VA-ECMO, with or without cardioprotective drug; assay type: in vivo; settings: at 30 days; VA-ECMO + elamipretide vs reperfusion alone or VA-ECMO alone before reperfusion; FIG. 6
Description: To explore late-term outcomes after VA-ECMO with or without cardioprotective drug therapy in AMI, we decannulated, recovered, and monitored swine for 28 days after peripheral cannulation for VA-ECMO support. Adult male swine were subjected to coronary occlusion followed by reperfusion alone or VA-ECMO before reperfusion for 180 minutes. In a separate group, swine were treated with a cardioprotective agent before initiation of VA-ECMO with a 30-minute delay to reperfusion. After 28 days, we identified for the first time that compared to reperfusion alone, VA-ECMO increases infarct scar size and impairs LV function after AMI (FIGS. 5A and 5B). […] These findings support our central hypothesis that VA-ECMO promotes LV scar after AMI and further that treatment with a cardioprotective agent reduces LV scar size 30 days after AMI, which may have broad reaching implications for any patient with acute myocardial infarction or patients at risk of developing cardiac impairment while receiving VA-ECMO. Broad groups of patients may be treated using this approach including, e.g., all AMI patients and all patients treated with VA-ECMO. Indications include, for example, cardiogenic shock, heart failure, lung failure, myocarditis, trauma, and arrhythmia. […] (FIG. 6).

[2] = system: ischemia-reperfusion injury (AMI, LAD occlusion); assay: Swine AMI model: intracoronary elamipretide before VA-ECMO, reperfusion delayed 30 minutes, then 180 minutes of reperfusion; assay type: in vivo
Description: To begin exploring whether stabilizing CL activity can limit myocardial infarct size during VA-ECMO support for AMI, we employed an over-the-wire coronary angioplasty balloon to delivery elamipretide into the area at risk while maintaining occlusion of the LAD. We treated adult male swine with a single IC injection of either elamipretide (0.05 ug/kg/minute IC over 10 minutes) or vehicle prior to initiating VA-ECMO and then delayed coronary reperfusion for 30 minutes, thereby allowing the drug to reach the area at risk and stabilize CL. Elamipretide was continued as an IV infusion (0.05 ug/kg/minute) during 180 minutes of reperfusion. […] Elamipretide dosing was based on prior reports (Kloner et al., J. Am. Heart Assoc. 1(3):e001644, 2012; Gibson et al., Eur. Heart J. 37(16):1296-1303, 2016).

[3] = system: anterior ST-segment elevation myocardial infarction; settings: IV elamipretide given before reperfusion; cited from earlier work
[4] = elamipretide plus VA-ECMO, FIG. 4C

**Q.** For “D-Arg-2′,6′-Dmt-Lys-Phe-NH2 [elamipretide]”, which “mitochondrial cardiolipin levels in the infarct zone” value (cardiolipin; FIG. 9C) is on record?
**A.** Its value is “increases cardiolipin”.

**Q.** What about the “mono-lysl cardiolipin: mature cardiolipin (MLCL:CL) ratio in the infarct zone” value (cardiolipin; FIG. 9D) of the same substance?
**A.** Its value is “reduces”.

**Q.** And the “infarct (LV) scar size” value [1]?
**A.** Its value is “reduced infarct scar size; also recorded: can limit LV scar size”.

**Q.** What about the “reduction of infarct size compared to IRI plus VA-ECMO support” value ([2]; adult male swine, 0.05 ug/kg/minute IC over 10 minutes before VA-ECMO, reperfusion delayed 30 minutes, IV infusion during 180 minutes reperfusion, vs vehicle) of the same substance?
**A.** The value was 70%.

**Q.** What about the “reduction of infarct size compared to IRI alone” value ([2]; adult male swine, elamipretide IC before VA-ECMO, reperfusion delayed 30 minutes) of the same substance?
**A.** Its value is 55%.

**Q.** And the “infarct size compared to reperfusion without VA-ECMO (in words)” value ([2]; elamipretide before initiation of VA-ECMO)?
**A.** Its value is “significantly reduces infarct size”.

**Q.** And the “MLCL:CL ratio in the infarct zone” value ([2]; elamipretide plus VA-ECMO, FIG. 4B)?
**A.** Its value is “decreased”.

**Q.** What about the “H202 levels in the infarct zone” value [2, 4] of the same substance?
**A.** The value was “decreased”.

**Q.** And the “mitochondrial protease activity in the infarct zone” value [2, 4]?
**A.** The value was “decreased”.

**Q.** And the ETC complex function ([2]; elamipretide plus VA-ECMO, FIG. 4E)?
**A.** The ETC complex function was “improved ETC complex function”.

**Q.** What about the “infarct size compared to IRI alone, elamipretide without VA-ECMO” value ([2]; elamipretide treatment without VA-ECMO, FIG. 4A) of the same substance?
**A.** The value was “failed to reduce infarct size; also recorded: did not reduce infarct size”.

**Q.** What about the “infarct size in humans (EMBRACE-STEMI Trial)” value [3] of the same substance?
**A.** Its value is “failed to reduce infarct size”.
